Experiments:
[1] = test system: PANMI (wild proso millet); assay: Pre-emergence herbicidal activity, warm season; format: in vivo, Panicum miliaceum; settings: for Pre-emergence activity (GR80) PANMI: GR80 = lowest tested rate (300, 100, 30, 10 g/ha) with 80% or greater inhibition, approx. 14 days after treating, 30/21° C.
How it was run: (§1)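 Seeds sown in sterilised fertilised topsoil received surface-applied compound in 50:50 acetone/water, typically at 300, 100, 30 and 10 g/ha, then greenhouse-grown at 30/21° C (warm-season species) or 18/13° C (cool-season species). Percent inhibition versus untreated plants was scored at about 14 days, giving GR80; an asterisk marks activity short of 80% at the top rate.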

[2] = test system: SORVU (shattercane); assay: Pre-emergence herbicidal activity, warm season; format: in vivo, Sorghum vulgare; settings: for Pre-emergence activity (GR80) SORVU: GR80 = lowest tested rate (300, 100, 30, 10 g/ha) with 80% or greater inhibition, approx. 14 days after treating, 30/21° C.
How it was run: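 GR80 values derive from percent inhibition relative to untreated plants, read roughly 14 days after sowing and pre-emergence soil-surface treatment (compound in 50:50 acetone/water; rates typically 10, 30, 100, 300 g/ha). Warm-season weeds grew at 30/21° C day/night, cool-season ones at 18/13° C; an asterisk marks activity without reaching 80% at the highest rate.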

[3] = test system: DIGSA (large crabgrass); assay: Pre-emergence herbicidal activity, warm season; format: in vivo, Digitaria sanguinalis; settings: for Pre-emergence activity (GR80) DIGSA: GR80 = lowest tested rate (300, 100, 30, 10 g/ha) with 80% or greater inhibition, approx. 14 days after treating, 30/21° C.
How it was run: as §1

[4] = test system: DIGSA (large crabgrass); assay: Pre-plant incorporated (PPI) herbicidal activity, warm season; format: in vivo, Digitaria sanguinalis; settings: for inhibition at 30 g/ha / inhibition at 100 g/ha / inhibition at 300 g/ha / inhibition at 900 g/ha / inhibition at 10 g/ha: Digitaria sanguinalis, read-out: Percent inhibition DIGSA; for inhibition at 30 g/ha / inhibition at 100 g/ha / inhibition at 300 g/ha / inhibition at 900 g/ha / Percent inhibition DIGSA / inhibition at 10 g/ha: PPI application; for PPI activity GR80, DIGSA: pre-plant incorporated, lowest tested rate with 80% or greater inhibition, about 14 days
Procedure: (§2) In another set of tests, the pre-plant incorporated (PPI) activity of compounds of this invention was evaluated on the same species as for the pre-emergence tests described above. In the PPI tests the following procedure, designed to simulate PPI application, was used.
(§3) A pre-prepared topsoil mixture (described above) was placed in a pot and compacted to a depth of 1.0 to 1.25 cm from the top of the pot. Seeds of each of several monocotyledonous and dicotyledonous annual plant species were placed on top of the soil. A sufficient quantity of soil to cover the seeds and level fill the pot was weighed into an open container. A known amount of the test compound was dissolved or suspended in an organic solvent and applied by spraying to this cover soil. The cover soil was thoroughly mixed to distribute the test compound throughout the cover soil, and was then applied as a cover layer over the seeds. Untreated soil was used as a cover layer for control pots. After treatment the plants were placed in a greenhouse where they received 0.64 cm of overhead irrigation. All subsequent watering consisted of a light overhead mist and/or subirrigation as needed for germination and growth. Tables 9 and 10 below relate to warm season plant species which were placed after pre-emergence treatment in a greenhouse with a 30/21° C. day/night temperature regime. Tables 11 and 12 below relates to cool season plant species placed after pre-emergence treatment in a greenhouse or growth chamber with an 18/13° C. day/night temperature regime. Only the compounds of Examples 1, 6, 8, 11, 13 and 15-20 were included in PPI tests.
(§4) Approximately 14 days after planting and treating, the plants were observed and herbicidal efficacy recorded as percent inhibition by comparison with untreated plants.

[5] = test system: POLCO (wild buckwheat); assay: Pre-plant incorporated (PPI) herbicidal activity, cool season; format: in vivo, Polygonum convolvulus; settings: for PPI activity GR80, POLCO: pre-plant incorporated, lowest tested rate with 80% or greater inhibition, about 14 days
Procedure: as §2, §3, §4

[6] = test system: BROTE (downy brome); assay: as above; format: in vivo, Bromus tectorum; settings: for PPI activity GR80, BROTE: pre-plant incorporated, lowest tested rate with 80% or greater inhibition, about 14 days
Procedure: as §2, §3, §4

[7] = test system: SETVI (green foxtail); assay: Post-emergence herbicidal activity, cool season; format: in vivo, Setaria viridis; settings: abraded plants sprayed at 300, 100, 30 and 10 g/ha; about 14 days after treatment
How it was run: (§5)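 Seedlings grown from seed in topsoil pots were treated 9 to 14 days after planting, foliage first abraded with garnet particles, then sprayed with test compound in 50:50 acetone/water at 300, 100, 30 and 10 g/ha (3,100 l/ha). Kept at 18/13° C. day/night, percent inhibition versus abraded unsprayed controls was scored about 14 days later and GR80 assigned.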

[8] = test system: LOLMG (annual ryegrass); assay: Post-emergence herbicidal activity, cool season; format: in vivo, Lolium multiflorum; settings: abraded plants sprayed at 300, 100, 30 and 10 g/ha; about 14 days after treatment
How it was run: as §5

[9] = test system: BROTE (downy brome); assay: Post-emergence herbicidal activity, cool season; format: in vivo, Bromus tectorum; settings: abraded plants sprayed at 300, 100, 30 and 10 g/ha; about 14 days after treatment
How it was run: as §5

[10] = test system: AVEFA (wild oat); assay: Post-emergence herbicidal activity, cool season; format: in vivo, Avena fatua; settings: abraded plants sprayed at 300, 100, 30 and 10 g/ha; about 14 days after treatment
How it was run: as §5

[11] = Bromus tectorum, weed, PPI application, 30 g/ha, read-out: Percent inhibition BROTE
[12] = Bromus tectorum, weed, PPI application, 100 g/ha, read-out: Percent inhibition BROTE
[13] = Bromus tectorum, weed, PPI application, 300 g/ha, read-out: Percent inhibition BROTE
[14] = Bromus tectorum, weed, PPI application, 900 g/ha, read-out: Percent inhibition BROTE
[15] = weed, PPI application, 100 g/ha
[16] = weed, PPI application, 300 g/ha
[17] = weed, PPI application, 900 g/ha

Compound	Pre-emergence activity (GR80) PANMI [1]	Pre-emergence activity (GR80) SORVU [2]	Pre-emergence activity (GR80) DIGSA [3]	inhibition at 30 g/ha ([4]; 30 g/ha)	inhibition at 100 g/ha ([4]; 100 g/ha)	inhibition at 300 g/ha ([4]; 300 g/ha)	inhibition at 900 g/ha ([4]; 900 g/ha)	PPI activity GR80, DIGSA [4]	PPI activity GR80, POLCO [5]	inhibition at 30 g/ha [6, 11]	inhibition at 100 g/ha [6, 12]	inhibition at 300 g/ha [6, 13]	inhibition at 900 g/ha [6, 14]	PPI activity GR80, BROTE [6]	Post-emergence activity GR80, SETVI [7]	Post-emergence activity GR80, LOLMG [8]	Post-emergence activity GR80, BROTE [9]	Post-emergence activity GR80, AVEFA [10]	inhibition at 10 g/ha [4]	further results
CCSC(F)(F)S(=O)(=O)c1ncn(C(=O)N(CC)CC)n1 [Example 8, 1-(N,N-diethylcarbamoyl)-3-[difluoro(ethylthio)methylsulfonyl]-1,2,4-triazole]	100 g/ha	100 g/ha	100 g/ha	100%	100%	100%	100%	30 g/ha	300 g/ha	0%	0%	65%	99%	300 g/ha	[empty]	[empty]	[empty]	[empty]		inhibition at 30 g/ha ([5]; Fallopia convolvulus, weed, PPI application, 30 g/ha, read-out: Percent inhibition POLCO): 0%; inhibition at 100 g/ha ([5]; Fallopia convolvulus, weed, PPI application, 100 g/ha, read-out: Percent inhibition POLCO): 0%; inhibition at 300 g/ha ([5]; Fallopia convolvulus, weed, PPI application, 300 g/ha, read-out: Percent inhibition POLCO): 85%; inhibition at 900 g/ha ([5]; Fallopia convolvulus, weed, PPI application, 900 g/ha, read-out: Percent inhibition POLCO): 100%
CCN(CC)C(=O)n1cnc(S(=O)(=O)C(F)(F)SC)n1 [Example 9]	100 g/ha	300 g/ha	100 g/ha												[empty]	[empty]	[empty]	[empty]		Percent inhibition DIGSA ([4]; 30 g/ha): 95%; Percent inhibition DIGSA ([4]; 100 g/ha): 100%; Percent inhibition DIGSA ([4]; 300 g/ha): 100%; Percent inhibition DIGSA ([4]; 900 g/ha): 100%; Percent inhibition POLCO ([5]; weed, PPI application, 30 g/ha): 0%; Percent inhibition POLCO [5, 15]: 0%; Percent inhibition POLCO [5, 16]: 95%; Percent inhibition POLCO [5, 17]: 100%; Percent inhibition BROTE ([6]; weed, PPI application, 30 g/ha): 0%; Percent inhibition BROTE [6, 15]: 0%; Percent inhibition BROTE [6, 16]: 20%; Percent inhibition BROTE [6, 17]: 95%
CCN(CC)C(=O)n1cnc(S(=O)(=O)C(F)F)n1 [Example 15, 1-(N,N-diethylcarbamoyl)-3-(difluoromethylsulfonyl)-1,2,4-triazole]	30 g/ha	* (activity observed, at least at highest rate, but <80% inhibition)	30 g/ha	70%	100%	100%	100%	100 g/ha	300 g/ha					* (activity observed, at least at highest rate, but <80% inhibition)	[empty]	[empty]	[empty]	[empty]	90%	inhibition at 10 g/ha ([1]; Panicum miliaceum, pre-emergence application, 10 g/ha, read-out: Percent inhibition, weed PANMI): 0%; inhibition at 30 g/ha ([1]; Panicum miliaceum, pre-emergence application, 30 g/ha, read-out: Percent inhibition, weed PANMI): 0%; inhibition at 100 g/ha ([1]; Panicum miliaceum, pre-emergence application, 100 g/ha, read-out: Percent inhibition, weed PANMI): 20%; inhibition at 300 g/ha ([1]; Panicum miliaceum, pre-emergence application, 300 g/ha, read-out: Percent inhibition, weed PANMI): 40%; inhibition at 900 g/ha ([1]; Panicum miliaceum, pre-emergence application, 900 g/ha, read-out: Percent inhibition, weed PANMI): 99%; inhibition at 10 g/ha ([2]; Sorghum bicolor, pre-emergence application, 10 g/ha, read-out: Percent inhibition, weed SORVU): 0%; inhibition at 30 g/ha ([2]; Sorghum bicolor, pre-emergence application, 30 g/ha, read-out: Percent inhibition, weed SORVU): 0%; inhibition at 100 g/ha ([2]; Sorghum bicolor, pre-emergence application, 100 g/ha, read-out: Percent inhibition, weed SORVU): 20%; inhibition at 300 g/ha ([2]; Sorghum bicolor, pre-emergence application, 300 g/ha, read-out: Percent inhibition, weed SORVU): 60%; inhibition at 900 g/ha ([2]; Sorghum bicolor, pre-emergence application, 900 g/ha, read-out: Percent inhibition, weed SORVU): 95%; inhibition at 10 g/ha ([3]; Digitaria sanguinalis, pre-emergence application, 10 g/ha, read-out: Percent inhibition, weed DIGSA): 70%; inhibition at 30 g/ha ([3]; Digitaria sanguinalis, pre-emergence application, 30 g/ha, read-out: Percent inhibition, weed DIGSA): 40%; inhibition at 100 g/ha ([3]; Digitaria sanguinalis, pre-emergence application, 100 g/ha, read-out: Percent inhibition, weed DIGSA): 80%; inhibition at 300 g/ha ([3]; Digitaria sanguinalis, pre-emergence application, 300 g/ha, read-out: Percent inhibition, weed DIGSA): 100%; inhibition at 900 g/ha ([3]; Digitaria sanguinalis, pre-emergence application, 900 g/ha, read-out: Percent inhibition, weed DIGSA): 100%
C=CCC(F)(F)S(=O)(=O)c1ncn(C(=O)N(CC)CC)n1 [Example 17, 1-(N,N-diethylcarbamoyl)-3-[(1,1-difluoro-3-butenyl)sulfonyl]-1,2,4-triazole]	100 g/ha	100 g/ha	100 g/ha	80%	80%	80%	100%	30 g/ha	100 g/ha	0%	20%	30%	95%	100 g/ha	[empty]	[empty]	[empty]	[empty]	60%	inhibition at 10 g/ha ([6]; Bromus tectorum, weed, PPI application, 10 g/ha, read-out: Percent inhibition BROTE): 0%

Reference: patent US6461997B1, “Triazole sulfones having herbicidal activity” (Monsanto Technology LLC, priority 1999, dated 2002)
